The target of this test is Rsk1 (Rattus norvegicus, UniProt Q63531). Put plainly: Rsk1(r) kinase assay, 33P-ATP filter binding. It counts as biochemical. Conditions: compound at 3 μM; [ATP] = 10 μM. The method, then: The assays briefly described below in Examples 54-123 were carried out as described in Davies et al., Biochem. J., 351:95-105 (2000). All assays were carried out at 10 μM ATP unless otherwise noted.
All kinases are pre-diluted to a 10× working concentration prior to addition into the assay. The composition of the dilution buffer for each kinase is described below in Table 3.
In addition, the following abbreviations are used: h is human; r is rat; m is mouse; b is bovine; and y is yeast.
In a final reaction volume of 25 μl, Rsk1(r) (5-10 mU) is incubated with 8 mM MOPS pH 7.0, 0.2 mM EDTA, 30 μM […], 10 mM MgAcetate and [γ-^33P-ATP] (Specific activity approx. 500 cpm/pmol, concentration as required). The reaction is initiated by the addition of Mg^2+[γ-^33P-ATP]. After incubation for 40 minutes at room temperature, the reaction is stopped by the addition of 5 μl of a 3% phosphoric acid solution. 10 μl of the reaction is then spotted onto a P30 filtermat and washed three times for 5 minutes in 75 mM phosphoric acid and once in methanol prior to drying and scintillation counting.
Using the appropriate assay protocols as listed above, kinase inhibition data for Compounds 21 and 71 was determined for the following kinases: CDK1/cyclin B, CDK2/cyclin A, cSRC, Yes, MEK1, and Rsk1.

Data on two compounds can be found in patent publication US20060004043A1, “Indazole compounds and methods of use thereof” (priority 2003, published 2006).

Sequence of Rsk1 (Q63531 whole entry): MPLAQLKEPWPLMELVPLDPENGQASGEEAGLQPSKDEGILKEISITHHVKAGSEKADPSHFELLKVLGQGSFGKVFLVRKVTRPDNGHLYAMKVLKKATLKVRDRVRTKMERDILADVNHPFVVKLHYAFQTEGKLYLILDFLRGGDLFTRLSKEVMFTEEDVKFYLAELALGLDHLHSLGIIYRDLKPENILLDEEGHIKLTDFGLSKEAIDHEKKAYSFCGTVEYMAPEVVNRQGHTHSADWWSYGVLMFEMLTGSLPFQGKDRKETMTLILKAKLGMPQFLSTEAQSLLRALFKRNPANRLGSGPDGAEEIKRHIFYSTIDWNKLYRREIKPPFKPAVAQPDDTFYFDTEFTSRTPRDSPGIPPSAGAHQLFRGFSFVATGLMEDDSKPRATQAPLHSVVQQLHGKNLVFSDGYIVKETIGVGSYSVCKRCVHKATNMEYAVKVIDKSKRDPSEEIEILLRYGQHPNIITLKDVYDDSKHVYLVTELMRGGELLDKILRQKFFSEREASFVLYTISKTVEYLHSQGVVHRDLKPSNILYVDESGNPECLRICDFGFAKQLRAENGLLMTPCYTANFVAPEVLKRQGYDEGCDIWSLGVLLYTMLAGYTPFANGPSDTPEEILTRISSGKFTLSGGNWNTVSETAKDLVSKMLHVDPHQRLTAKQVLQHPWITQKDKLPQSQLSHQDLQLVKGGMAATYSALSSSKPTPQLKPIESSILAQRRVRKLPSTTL

Regarding `COc1ccc2cc(-c3n[nH]c4ccc(-c5n[nH]c(CN6CCOCC6)n5)cc34)ccc2c1` [Compound 20], the “Rsk1 (% control)” value turned out to be 4 % control.
The value for `CC(C)(C)Cc1nc(-c2ccc3[nH]nc(-c4ccc5cc(OCc6ccccn6)ccc5c4)c3c2)n[nH]1` [Compound 92] was 29 % control.
